Source: publication PMC9844085, “Bioinformatics-Structural Approach to the Search for New D-Amino Acid Oxidases” (Acta Naturae, 2022)

Target: T1, NhyDAAO (Natronosporangium hydrolyticum, UniProt A0A895YFV4)
T1 construct: gene JQS43_10680; recombinant, gene cloned, expression in E. coli in progress
T1 sequence (A0A895YFV4 1-316): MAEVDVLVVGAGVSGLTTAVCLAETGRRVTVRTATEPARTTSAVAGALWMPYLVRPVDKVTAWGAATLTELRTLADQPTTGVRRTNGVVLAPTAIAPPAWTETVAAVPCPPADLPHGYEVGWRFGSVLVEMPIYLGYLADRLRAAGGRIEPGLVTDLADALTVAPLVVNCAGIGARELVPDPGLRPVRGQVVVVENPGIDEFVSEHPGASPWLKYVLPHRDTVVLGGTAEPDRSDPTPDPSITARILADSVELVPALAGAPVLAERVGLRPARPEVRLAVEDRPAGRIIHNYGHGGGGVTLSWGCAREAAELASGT
Assay: D-amino acid oxidase activity, preliminary experiments, method not given
Assay type: cell-based
Conditions: conditions and enzyme purity not told; named among the best substrates

Compound	D-amino acid oxidase activity, preliminary experiments, method not given
CC(C)C[C@@H](N)C(=O)O [D-Leu]	Preliminary experiments confirmed that D-Leu and D-Phe are the best substrates for NhyDAAO
N[C@H](Cc1ccccc1)C(=O)O [D-Phe]	Preliminary experiments confirmed that D-Leu and D-Phe are the best substrates for NhyDAAO
